The results in this text go back to patent publication US11319298B2 (Merck Sharp & Dohme Corp., priority 2016, dated 2022).

This assay concerns the target T1, human M4 muscarinic acetylcholine receptor (Homo sapiens, UniProt P08173).
T1 construct: expressed in transfected cells; host or cells: CHO-K1
T1 sequence (P08173 1-479): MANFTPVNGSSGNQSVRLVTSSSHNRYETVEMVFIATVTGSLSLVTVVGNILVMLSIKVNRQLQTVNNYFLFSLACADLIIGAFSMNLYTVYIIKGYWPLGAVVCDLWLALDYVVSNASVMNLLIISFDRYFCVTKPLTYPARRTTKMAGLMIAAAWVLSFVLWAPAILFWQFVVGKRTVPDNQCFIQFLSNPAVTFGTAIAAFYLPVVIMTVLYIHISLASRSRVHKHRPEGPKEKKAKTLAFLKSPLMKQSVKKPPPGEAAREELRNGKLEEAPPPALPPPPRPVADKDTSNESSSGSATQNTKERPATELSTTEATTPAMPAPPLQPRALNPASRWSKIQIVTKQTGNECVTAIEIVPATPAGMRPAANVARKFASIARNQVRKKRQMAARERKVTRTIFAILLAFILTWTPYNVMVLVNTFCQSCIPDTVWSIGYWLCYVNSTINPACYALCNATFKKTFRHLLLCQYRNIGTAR
The experiment in a line: human FLIPR-based M4 PAM assay, CHO-K1 cells stably transfected with human M4 receptor and chimeric G-protein Gαqi5. The assay is classed as cell-based. Conditions: inflection point (IP) of dose response curve; acetylcholine added at 20% of maximum response; CHO-K1 human M4/Gαqi5, FLIPR Tetra. In outline:
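CHO-K1 cells were loaded with calcium dye at 37 °C for ~1 h. Fluorescence (ex 470–495/em 515–575 nm) was read for 4 min after test compound at increasing concentrations, then 3.5 min after acetylcholine at an EC20; sometimes a third addition at EC70 followed. The value is the inflection point of a 4-parameter logistic fit.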

For `Cc1c(Cl)nc(CO)nc1N1CCC(Oc2ccc3c(c2)CCCN3)CC1` [Example 93, (4-chloro-5-methyl-6-(4-((1,2,3,4-tetrahydroquinolin-6-yl)oxy)piperidin-1-yl)pyrimidin-2-yl)methanol], the EC50 turned out to be 33 nM. `Cc1c(Cl)nc(CO)nc1N1CCC(Oc2ccc3c(c2)COC3)CC1` [Example 94, (4-chloro-6-(4-((1,3-dihydroisobenzofuran-5-yl)oxy)piperidin-1-yl)-5-methylpyrimidin-2-yl)methanol]: the EC50 stood at 34 nM. For the compound `COc1ccc(OC2CCN(c3nc(SC)ncc3C#N)CC2)cc1` [Example 95, 4-(4-(4-methoxyphenoxy)piperidin-1-yl)-2-(methylthio)pyrimidine-5-carbonitrile], the EC50 was determined as 803 nM. The figure for `CSc1ncc(C#N)c(N2CCC(Oc3cccnc3)CC2)n1` [Example 95A, 2-(methylthio)-4-(4-(pyridin-3-yloxy)piperidin-1-yl)pyrimidine-5-carbonitrile] is 4940 nM. As for `Cc1c(Cl)nc(C2CC2)nc1N1CCC(Oc2cccnc2)CC1` [Example 95B, 4-chloro-2-cyclopropyl-5-methyl-6-(4-(pyridin-3-yloxy)piperidin-1-yl)pyrimidine], the figure is 435 nM; as for `COc1ccc(OC2CCN(c3nc(C4CC4)nc(Cl)c3C)CC2)cc1` [Example 95C, 4-chloro-2-cyclopropyl-6-(4-(4-methoxyphenoxy)piperidin-1-yl)-5-methylpyrimidine], 846 nM. `COc1ccc(OC2CCN(c3ncncc3Br)CC2)cn1` [Example 95D, 5-bromo-4-(4-((6-methoxypyridin-3-yl)oxy)piperidin-1-yl)pyrimidine] had an EC50 of 928 nM. Turning to `Cc1c(Cl)nc(CO)nc1N1CCC(Oc2ccc3c(c2)OCCN3)CC1` [Example 96, (4-Chloro-6-(4-((3,4-dihydro-2H-benzo[b][1,4]oxazin-7-yl)oxy)piperidin-1-yl)-5-methylpyrimidin-2-yl)methanol], the EC50 turned out to be 37 nM. In turn, `Cc1c(Cl)nc(CO)nc1N1CCC(Oc2ccc3[nH]ccc3c2)CC1` [Example 97, (4-(4-((1H-indol-5-yl)oxy)piperidin-1-yl)-6-chloro-5-methylpyrimidin-2-yl)methanol] registered an EC50 of 68 nM. In turn, `Cc1c(Cl)nc(CO)nc1N1CCC(Oc2ccc3c(c2)C(=O)NC3)CC1` [Example 98, 6-((1-(6-chloro-2-(hydroxymethyl)-5-methylpyrimidin-4-yl)piperidin-4-yl)oxy)isoindolin-1-one] came in with an EC50 of 184 nM. `Cc1ncc(C)c(N2CCC(Oc3ccc4c(c3)C(=O)OC4)CC2)n1` [Example 99, 6-((1-(2,5-Dimethylpyrimidin-4-yl)piperidin-4-yl)oxy)isobenzofuran-1(31-1)-one] gave an EC50 of 319 nM. `Cc1ncc(C)c(N2CCC(Oc3ccc4c(c3)C(=O)NC4)CC2)n1` [Example 100, 6-((1-(2,5-dimethylpyrimidin-4-yl)piperidin-4-yl)oxy)isoindolin-1-one] showed an EC50 of 674 nM. On to `COc1ccc(OC2CCN(c3nnc(C(=O)NCc4ccncc4)cc3C)CC2)cc1` [Example 101, 6-(4-(4-Methoxyphenoxy)piperidin-1-yl)-5-methyl-N-(pyridin-4-ylmethyl)pyridazine-3-carboxamide], for which the EC50 was found to be 129 nM. For the compound `COC(=O)c1cc(C)c(N2CCC(Oc3ccc(OC)nc3)CC2)nc1F` [Example 102, Methyl 2-fluoro-6-(4-((6-methoxypyridin-3-yl)oxy)piperidin-1-yl)-5-methylnicotinate], the EC50 was determined as 378 nM. In the case of `Cc1nc(C)c(C)c(N2CCC(Oc3cccc(C#N)c3)CC2)n1` [Example 103, 3-((1-(2,5,6-Trimethylpyrimidin-4-yl)piperidin-4-yl)oxy)benzonitrile], the EC50 amounted to 61 nM. The figure for `COc1ccc(OC2CCN(c3nc(C)nc(C)c3C)CC2)cn1` [Example 104, 4-(4-((6-methoxypyridin-3-yl)oxy)piperidin-1-yl)-2,5,6,-trimethylpyrimidine] is 91 nM; for `CCOC(=O)c1cc(C)c(N2CCC(Oc3cccc(C#N)c3)CC2)nn1` [Example 105, ethyl 6-(4-(3-cyanophenoxy)piperidin-1-yl)-5-methylpyridazine-3-carboxylate] it is 58 nM; for `CCOC(=O)c1cc(C)c(N2CCC(Oc3ccc(OC)nc3)CC2)nn1` [Example 105A, ethyl 6-(4-((6-methoxypridin-3-yl)oxy)piperidin-1-yl)-5-methylpyridazine-3-carboxylate] it is 170 nM. Consider `Cc1cc(C(=O)NCc2ccncc2)nnc1N1CCC(Oc2cccc(C#N)c2)CC1` [Example 106, 6-(4-(3-Cyanophenoxy)piperidin-1-yl)-5-methyl-N-(pyridin-4-ylmethyl)pyridazine-3-carboxamide], for which the midpoint of the response, the EC50, lay at 33 nM.

The compound `COc1ccc(OC2CCN(c3nnc(C(=O)OCc4ccncc4)cc3C)CC2)cn1` [Example 106A, Pyridin-4-ylmethyl 6-(4-((6-methoxypyridin-3-yl)oxy)piperidin-1-yl)-5-methylpyridazine-3-carboxylate] registered an EC50 of 85 nM. The compound `Cc1cc(C(=O)NCc2ccncc2)nnc1N1CCC(Oc2ccc3c(c2)OCCO3)CC1` [Example 108, 6-[4-(2,3-dihydro-1,4-benzodioxin-6-yloxy)piperidin-1-yl]-5-methyl-N-(pyridin-4-ylmethyl)pyridazine-3-carboxamide] showed an EC50 of 18 nM. `COc1ccc(OC2CCN(c3nnc(C(=O)NCc4ccncc4)cc3C)CC2)cn1` [Example 109, 6-{4-[(6-methoxypyridin-3-yl)oxy]piperidin-1-yl}-5-methyl-N-(pyridin-4-ylmethyl)pyridazine-3-carboxamide] came in with an EC50 of 34 nM. On to `Cc1cc(C(=O)NCc2ccncc2)nnc1N1CCC(Oc2ccc3[nH]ccc3c2)CC1` [Example 110, 6-[4-(1H-indol-5-yloxy)piperidin-1-yl]-5-methyl-N-(pyridin-4-ylmethyl)pyridazine-3-carboxamide], for which the EC50 was determined as 35 nM. As for `Cc1cc(C(=O)NCc2ccncc2)nnc1N1CCC(Oc2ccc3[nH]ncc3c2)CC1` [Example 111, 6-[4-(1H-indazol-5-yloxy)piperidin-1-yl]-5-methyl-N-(pyridin-4-ylmethyl)pyridazine-3-carboxamide], the figure is 40 nM; as for `COc1ccc(OC2CCN(c3nc(C#N)c(C(N)=O)cc3C)CC2)cn1` [Example 112, 2-cyano-6-{4-[(6-methoxpyridin-3-yl)oxy]piperidin-1-yl}-5-methylpyridine-3-carboxamide], 41 nM; as for `COc1ccc(OC2CCN(c3nnc(C(=O)NCc4nncs4)cc3C)CC2)cn1` [Example 113, 6-{4-[(6-methoxypyridn-3-yl)oxy]piperidin-1-yl}-5-methyl-N-(1,3,4-thiadiazol-2-ylmethyl)pyridazine-3-carboxamide], 44 nM. Take `Cc1cc(C(=O)NCc2ccncc2)nnc1N1CCC(Oc2ccccc2)CC1` [Example 114, 5-methyl-6-(4-phenoxypiperidin-1-yl)-N-(pyridin-4-ylmethyl)pyridazine-3-carboxamide]: a half-maximal effect (EC50) was put at 53 nM.

For the compound `Cc1cc(C(=O)NCc2ccncc2)nnc1N1CC[C@@H](Oc2cccc(C#N)c2)[C@@H](F)C1` [Example 115, 6-[(3S,4R)-4-(3-cyanophenoxy)-3-fluoropiperidin-1-yl]-5-methyl-N-(pyridin-4-ylmethyl)pyridazine-3-carboxamide], the EC50 was 61 nM.

Regarding `COc1ccc(OC2CCN(c3nnc(C(=O)NCc4ccncc4)cc3C)CC2)cn1` [Example 116, 6-{4-[(6-methoxypyridin-3-yl)oxy]piperidin-1-yl}-5-methyl-N-(pyridin-4-ylmethyl)pyridazine-3-carboxamide], it took 79 nM to reach a half-maximal effect (EC50). `Cc1cc(C(=O)NC2C3CC2C3)nnc1N1CCC(Oc2cccc(C#N)c2)CC1` (stereo not shown) [Example 117, N-bicyclo[1.1.1]pent-2-yl-6-[4-(3-cyanophenoxy)piperidin-1-yl]-5-methylpyridazine-3-carboxamide] returned an EC50 of 85 nM. As to `COc1ccc(OC2CCN(c3nnc(C(=O)NCc4cnn[nH]4)cc3C)CC2)cn1` [Example 118, 6-{4-[(6-methoxypyridin-3-yl)oxy]piperidin-1-yl}-5-methyl-N-(1H-1,2,3-triazol-5-ylmethyl)pyridazine-3-carboxamide], it took 86 nM to reach a half-maximal effect (EC50).

`COc1ccc(OC2CCN(c3nnc(C(=O)NCc4ccn[nH]4)cc3C)CC2)cn1` [Example 119, 6-{4-[(6-methoxypyridin-3-yl)oxy]piperidin-1-yl}-5-methyl-N-(1H-pyrazol-5-ylmethyl)pyridazine-3-carboxamide] had an EC50 of 95 nM. Turning to `COc1ccc(OC2CCN(c3nnc(C(=O)Nc4ccncc4)cc3C)CC2)cn1` [Example 120, 6-{4-[(6-methoxypyridin-3-yl)oxy]piperidin-1-yl}-5-methyl-N-pyridin-4-ylpyridazine-3-carboxamide], the EC50 was 96 nM.

For `COc1ccc(OC2CCN(c3nnc(C(=O)NCc4ccncc4C)cc3C)CC2)cn1` [Example 121, 6-{4-[(6-methoxypyridin-3-yl)oxy]piperidin-1-yl}-5-methyl-N-[(3-methylpyridin-4-yl)methyl]pyridazine-3-carboxamide], the response was half-maximal at 99 nM (EC50).
